Data taken from US20210323940A1 (OCEANS LTD., priority 2018, published 2021).
Values after ≈ are worked out from the molar mass of the structure shown.

Legend:
[1] = CIMA assay (tetrazolium reduction, cell viability, 72 h); assay type: cell-based, human; settings: human
Experimental: (§1) Prepared extracts were assessed following chronic exposure conditions in which cells were seeded at 2×10^3 cells/well (96 wells-plate) and incubated with test compounds for 72 h. Each compound was evaluated over a range of concentrations (0, 10, 25, 50 or 100 μg/ml). Cell proliferation was initially assessed using a standard colorimetric indicator of metabolic activity (CIMA) assay. In this assay, tetrazole reduction was evaluated as a measure of metabolic function that evaluates mitochondrial activity to determine the extent of cell proliferation within a culture. This assay is based on the reduction of yellow tetrazolium salt to purple formazan by mitochondrial reductases enzyme in viable cells, resulting in a color change that confers a change in absorbance. Seven human cell lines were selected for primary evaluation: U373 (glioblastoma-astrocytoma), A549 (lung carcinoma), THP-1 (acute monocytic leukemia), MCF7 (mammary gland adenocarcinoma), SKOV3 (ovarian adenocarcinoma), PC3 (prostate adenocarcinoma) and CCD1079SK (fibroblast, noncancerous but proliferating) (see FIG. 2 and Table 2). Results are expressed in Table 2 as % viability (means±standard deviation of three replicates), with LD50/IC50 values in Tables 3 and 6. […] The maximum DMSO concentration was 1% at 100 μg/ml with 5% SDS used as a known toxic inducer.
(§2) Experimental: Stock solutions of the test compounds were prepared in dimethylsulfoxide (DMSO) at 10 mg/ml and stored at −20° C. until used. This preparation ensures that the DMSO content delivered to cells in culture never exceeds 1%. Appropriate cells number, based on previous assays, were seeded in 96 well plate and incubated with test compounds (up to 8 log concentrations, 0 to 50 or 100 μg/ml) for 72 h. Cell proliferation was initially assessed using a standard colorimetric indicator of metabolic activity (CIMA) assay. In this assay, reduction of yellow tetrazolium salt (MTT) to purple formazan by mitochondrial reductases enzymes in viable cells were measured as change in absorbance (λ=500-600).
(§3) Seven human cell lines were evaluated: U373 (glioblastoma-astrocytoma), A549 (lung carcinoma), PC3 (prostate adenocarcinoma), THP1 (acute monocytic leukemia), MDA-MB-231 (mammary gland adenocarcinoma), SKOV3 (ovarian adenocarcinoma) and CCD1079Sk (normal skin fibroblast) cells.

[2] = system: A549 (lung carcinoma); test: as above; assay type: cell-based, human; settings: Homo sapiens
Experimental: as §1, §2, §3

[3] = system: CCD1079SK (fibroblast, noncancerous but proliferating); test: as above; assay type: cell-based, human; settings: Homo sapiens, Fibroblast; 1079SK; 72 h
Experimental: as §1, §2, §3

[4] = system: PC3 (prostate adenocarcinoma); test: as above; assay type: cell-based, human; settings: Homo sapiens
Experimental: as §1, §2, §3

[5] = system: SKOV3 (ovarian adenocarcinoma); test: as above; assay type: cell-based, human; settings: Homo sapiens
Experimental: as §1, §2, §3

[6] = system: THP-1 (acute monocytic leukemia); test: as above; assay type: cell-based, human; settings: Homo sapiens
Experimental: as §1, §2, §3

[7] = system: U373 (glioblastoma-astrocytoma); test: as above; assay type: cell-based, human; settings: Homo sapiens, U373 MG
Experimental: as §1, §2, §3

[8] = system: MDA-MB-231 (mammary gland adenocarcinoma); test: CIMA assay (MTT, 72 h); assay type: cell-based, human; settings: Homo sapiens, MDA-MB-231
Experimental: as §2, with “Appropriate cells number, based on previous assays, were seeded in 96 well plate and incubated with test compounds (up to 8 log concentrations, 0 to 50 or 100 μg/ml) for 72 h.” left out
as §3

[9] = system: tumour cell lines; test: CIMA assay, overall statements on the panel of human cell lines; assay type: cell-based; settings: synthetic compound, 72 h, listed as Synthesized compound II
Experimental: Prepared extracts were assessed following chronic exposure conditions in which cells were seeded at 2×10^3 cells/well (96 wells-plate) and incubated with test compounds for 72 h. Each compound was evaluated over a range of concentrations (0, 10, 25, 50 or 100 μg/ml). Cell proliferation was initially assessed using a standard colorimetric indicator of metabolic activity (CIMA) assay. In this assay, tetrazole reduction was evaluated as a measure of metabolic function that evaluates mitochondrial activity to determine the extent of cell proliferation within a culture. This assay is based on the reduction of yellow tetrazolium salt to purple formazan by mitochondrial reductases enzyme in viable cells, resulting in a color change that confers a change in absorbance. […]
Crude extract #1 was fractionated into five fractions by C-18 SPE column separation using 15 ml each of 5% methanol (fraction 1), 25% methanol (fraction 2), 50% methanol (fraction 3), 100% methanol (fraction 4) and methanol:dichloromethane (1:1) (fraction 5). Extracts were fractionated and the resulting fractions were evaluated using CIMA assay. […]
Experimental: Stock solutions of the test compounds were prepared in dimethylsulfoxide (DMSO) at 10 mg/ml and stored at −20° C. until used. […] Cell proliferation was initially assessed using a standard colorimetric indicator of metabolic activity (CIMA) assay. […]

[10] = A549, read-out: average cell viability
[11] = read-out: average cell viability
[12] = SK-OV-3, read-out: average cell viability
[13] = THP-1, read-out: average cell viability

CCCCC[C@H](O)[C@H](O)/C=C/[C@@H]1CCCCCCCC(=O)O1 [compound (II), 12R, 13S-Dihydroxy-10-Octadecen-9S-olide] gave a viability at 72 h, 1 ug/mL [1] of 91%, a viability at 72 h, 10 ug/mL [1] of 84% and a viability at 72 h, 50 ug/mL [1] of 90%. The viability at 72 h, 100 ug/mL [1] was 17%, the viability at 1 µg/mL [2, 10] was 95% and the viability at 10 µg/mL [2, 10] was 93%. For the same compound, the viability at 50 µg/mL [2, 10] was 92%, the viability at 100 µg/mL [2, 10] was 61% and the IC50 ([2]; A549, 72 h) was 22 µg/mL (≈ 70.5 µM). For the same compound, the IC50 [3] was 34.9 µg/mL (≈ 112 µM), the viability at 1 µg/mL [4, 11] was 100% and the viability at 10 µg/mL [4, 11] was 93%. The viability at 50 µg/mL [4, 11] was 97%, the viability at 100 µg/mL [4, 11] was 19% and the IC50 ([4]; PC3, 72 h) was 37.7 µg/mL (≈ 121 µM). It also gave a viability at 1 µg/mL [5, 12] of 97%, a viability at 10 µg/mL [5, 12] of 97% and a viability at 50 µg/mL [5, 12] of 94%. It also gave a viability at 100 µg/mL [5, 12] of 85%, an IC50 ([5]; SK-OV-3, SKOV3, 72 h) of 67.7 µg/mL (≈ 217 µM) and a viability at 1 µg/mL [6, 13] of 96%. It also gave a viability at 10 µg/mL [6, 13] of 84%, a viability at 50 µg/mL [6, 13] of 68% and a viability at 100 µg/mL [6, 13] of 44%. For the same compound, the IC50 ([6]; THP-1, 72 h) was 25.9 µg/mL (≈ 82.8 µM), the viability at 1 µg/mL [7, 11] was 90% and the viability at 10 µg/mL [7, 11] was 85%. The viability at 50 µg/mL [7, 11] was 68%, the viability at 100 µg/mL [7, 11] was 3% and the IC50 ([7]; U373, 72 h) was 39.1 µg/mL (≈ 125 µM). It also gave a viability at 1 µg/mL ([8]; MDA-MB, 1 ug/mL, read-out: average cell viability) of 101%, a viability at 10 µg/mL ([8]; MDA-MB, 10 ug/mL, read-out: average cell viability) of 96% and a viability at 50 µg/mL ([8]; MDA-MB, 50 ug/mL, read-out: average cell viability) of 66%. The viability at 100 µg/mL ([8]; MDA-MB, 100 ug/mL, read-out: average cell viability) was 20%, the IC50 ([8]; 72 h) was 34.3 µg/mL (≈ 110 µM) and the “antiproliferative activity in tumour cell lines” value [9] was “significantly reduced tumour cell viability and growth in vitro”.
